Legend:
Conditions in all cases: 24 hours
H9C2 cells = experiment: Cell death protective effect in cardiac myocytes against Erastin, glutamate and RSL3 (LDH); format: cell-based, rat
Description: (§1) In order to identify the protective effect on cardiac cells, H9C2 cells were divided into 96-well plates by 1×10^4 and cultured for 18 to 24 hours. The compounds of Examples were diluted to final concentrations of 0.1 and 1 μM, treated in each well, and incubated for 15 to 20 minutes. Erastin, glutamate, and RSL3 were treated to have final concentrations of 1 μM, 25 mM, and 0.5 μM, respectively, and cultured for 24 hours. In order to identify the protective effect of each compound, the degree of LDH extracellular secretion was measured using cytotoxicity LDH assay kit [Dojindo; CK12]. Briefly, at the time when the treatment of the cells with Erastin, glutamate, and RSL3 for 24 hours is completed, the supernatants containing the cells are taken by 70 μL and transferred to a new 96-well plate. The assay buffer included in the kit is added in an amount of 70 μL/well (the same amount as the sample) thereto, and then the plate is wrapped with a foil and the reaction is performed at room temperature for 15 minutes.

NRK-49F cells = experiment: Cell death protective effect in renal fibroblasts against Erastin, glutamate and RSL3 (LDH); format: cell-based, rat
Description: as §1, with “effect on renal fibroblasts, NRK-49F cells were” for “effect on cardiac cells, H9C2 cells were”, “concentrations of 3 μM, 75” for “concentrations of 1 μM, 25”, “3 μM, 75 mM, and” for “1 μM, 25 mM, and”, “mM, and 3 μM, respectively,” for “mM, and 0.5 μM, respectively,”, “by 70 μl and transferred” for “by 70 μL and transferred”

PC-12 cells = experiment: Cell death protective effect in adrenal cells against Erastin, glutamate and RSL3 (LDH); format: cell-based, rat
Description: In order to identify the protective effect on adrenal cells, PC-12 cells were divided into 96-well plates by 1×10^4 and cultured for 18 to 24 hours. The compounds of Examples were diluted to final concentrations of 0.1 and 1.0 μM in Erastin, 0.01 and 0.1 in glutamate, and 0.3 and 3.0 μM in RSL3, treated in each well, and incubated for 15 to 20 minutes. Erastin, glutamate, and RSL3 were treated to have final concentrations of 1 μM, 10 mM, and 0.3 μM, respectively, and cultured for 24 hours. In order to identify the protective effect of each compound, the degree of LDH extracellular secretion was measured using cytotoxicity LDH assay kit [Dojindo; CK12]. Briefly, at the time when the treatment of the cells with Erastin, glutamate, and RSL3 for 24 hours is completed, the supernatants containing the cells are taken by 70 μL and transferred to a new 96-well plate. The assay buffer included in the kit is added in an amount of 70 μL/well (the same amount as the sample) thereto, and then the plate is wrapped with a foil and the reaction is performed at room temperature for 15 minutes. After observing the changed color of the sample, the stop solution was added in an amount of 35 µL/well thereto, and then the 0 inhibition value was calculated by measuring the absorbance value at a wavelength of 490 nm using an iD3 spectrophotometer.

NIH/3T3 cells = experiment: Cell death protective effect in fibroblasts against Erastin, glutamate and RSL3 (LDH); format: cell-based, mouse
Description: In order to identify the protective effect on fibroblasts, NIH/3T3 cells were divided into 96-well plates by 8×10^3 and cultured for 18 to 24 hours. The compounds of Examples were diluted to final concentrations of 0.1 and 1 μM, treated in each well, and incubated for 15 to 20 minutes. Erastin, glutamate, and RSL3 were treated to have final concentrations of 3 μM, 30 mM, and 3 μM, respectively, and cultured for 24 hours. In order to identify the protective effect of each compound, the degree of LDH extracellular secretion was measured using cytotoxicity LDH assay kit [Dojindo; CK12]. Briefly, at the time when the treatment of the cells with Erastin, glutamate, and RSL3 for 24 hours is completed, the supernatants containing the cells are taken by 70 μL and transferred to a new 96-well plate. The assay buffer included in the kit is added in an amount of 70 μL/well (the same amount as the sample) thereto, and then the plate is wrapped with a foil and the reaction is performed at room temperature for 15 minutes. After observing the changed color of the sample, the stop solution was added in an amount of 35 μL/well thereto, and then the 00 inhibition value was calculated by measuring the absorbance value at a wavelength of 490 nm using an iD3 spectrophotometer.

[1] = H9C2, Erastin 1 μM, compound 0.1 μM
[2] = H9C2, Erastin 1 μM, compound 1.0 μM
[3] = H9C2, Glutamate 25 mM, compound 0.1 μM
[4] = H9C2, Glutamate 25 mM, compound 1.0 μM
[5] = H9C2, RSL3 0.5 μM, compound 0.1 μM
[6] = H9C2, RSL3 0.5 μM, compound 1.0 μM
[7] = Glutamate 75 mM, compound 0.1 μM
[8] = Glutamate 75 mM, compound 1.0 μM
[9] = PC-12, Erastin 1 μM, compound 0.1 μM
[10] = PC-12, Erastin 1 μM, compound 1.0 μM
[11] = PC-12, Glutamate 10 mM, compound 0.01 μM
[12] = PC-12, Glutamate 10 mM, compound 0.1 μM
[13] = PC-12, RSL3 0.3 μM, compound 0.3 μM
[14] = PC-12, RSL3 0.3 μM, compound 3.0 μM
[15] = NIH/3T3, Erastin 3 μM, compound 0.1 μM
[16] = NIH/3T3, Erastin 3 μM, compound 1.0 μM
[17] = NIH/3T3, Glutamate 30 mM, compound 0.1 μM
[18] = NIH/3T3, Glutamate 30 mM, compound 1.0 μM
[19] = NIH/3T3, RSL3 3 μM, compound 0.1 μM
[20] = NIH/3T3, RSL3 3 μM, compound 1.0 μM

Row | Structure (SMILES) | inhibition (%) (H9C2 cells; [1]) | inhibition (%) (H9C2 cells; [2]) | inhibition (%) (H9C2 cells; [3]) | inhibition (%) (H9C2 cells; [4]) | inhibition (%) (H9C2 cells; [5]) | inhibition (%) (H9C2 cells; [6]) | inhibition (%) (NRK-49F cells; Erastin 3 μM, compound 0.1 μM) | inhibition (%) (NRK-49F cells; Erastin 3 μM, compound 1.0 μM) | inhibition (%) (NRK-49F cells; [7]) | inhibition (%) (NRK-49F cells; [8]) | inhibition (%) (NRK-49F cells; RSL3 3 μM, compound 0.1 μM) | inhibition (%) (NRK-49F cells; RSL3 3 μM, compound 1.0 μM) | inhibition (%) (PC-12 cells; [9]) | inhibition (%) (PC-12 cells; [10]) | inhibition (%) (PC-12 cells; [11]) | inhibition (%) (PC-12 cells; [12]) | inhibition (%) (PC-12 cells; [13]) | inhibition (%) (PC-12 cells; [14]) | inhibition (%) (NIH/3T3 cells; [15]) | inhibition (%) (NIH/3T3 cells; [16]) | other results
1 | COCCOCc1cc(NC2CCOCC2)c2[nH]c(-c3ccccc3)cc2c1 [Example 1, 5-(2-methoxyethoxymethyl)-2-phenyl-N-tetrahydropyran-4-yl-1H-indol-7-amine] | 100% | 100% | 96% | 97% | 100% | 98% | 99% | 99% | 100% | 100% | 99% | 99% | 100% | 100% | 53% | 98% | 100% | 100% | 99% | 100% | inhibition (%) (NIH/3T3 cells; [17]): 100%; inhibition (%) (NIH/3T3 cells; [18]): 100%; inhibition (%) (NIH/3T3 cells; [19]): 100%; inhibition (%) (NIH/3T3 cells; [20]): 100%
2 | COCCOCc1cc(NCC2CCOCC2)c2[nH]c(-c3ccccc3)cc2c1 [Example 4, 5-2(methoxyethoxymethyl)-2-phenyl-N-(tetrahydropyran-4-ylmethyl)-1H-indol-7-amine] | 100% | 100% | 97% | 96% | 97% | 96% | 99% | 99% | 99% | 100% | 98% | 99% | 100% | 100% | 53% | 96% | 100% | 100% | 99% | 99% | inhibition (%) (NIH/3T3 cells; [17]): 100%; inhibition (%) (NIH/3T3 cells; [18]): 100%; inhibition (%) (NIH/3T3 cells; [19]): 100%; inhibition (%) (NIH/3T3 cells; [20]): 100%
3 | COCCOCc1cc(NC2CCN(C(C)=O)CC2)c2[nH]c(-c3ccccc3)cc2c1 [Example 30, 1-[4-[[5-(2-methoxyethoxymethyl)-2-phenyl-1H-indol-7-yl]amino]piperidyl]-1-ethanone] | 0% | 100% | 90% | 98% | 0% | 96% | 98% | 98% | 97% | 100% | 52% | 98% | 86% | 100% | 33% | 95% | 100% | 100% | 6% | 100% | inhibition (%) (NIH/3T3 cells; [17]): 100%; inhibition (%) (NIH/3T3 cells; [18]): 100%; inhibition (%) (NIH/3T3 cells; [19]): 100%; inhibition (%) (NIH/3T3 cells; [20]): 100%

— patent US20250122155A1, “NOVEL INDOLE DERIVATIVE, PHARMACEUTICAL COMPOSITION COMPRISING SAME, AND USE THEREOF” (MITOIMMUNE THERAPEUTICS INC., priority 2021, published 2025)
